Measured values taken from patent US20030215896A1, “Gamma secretase substrates and in vitro assays” (priority 2003, published 2003).

Tests used:
γ-secretase = γ-secretase (Cricetulus griseus, UniProt G3HNF2); test: Radiolabeling pulse-chase of CHO/APP695 cells, 4G8 immunoprecipitation, SDS-PAGE; assay type: cell-based, Chinese hamster; details: 1 μM, data not shown
Experimental: The effect of a γ-secretase inhibitor on γ-secretase activity was measured using Chinese hamster ovary fibroblasts that stably express APP695 (CHO/APP695, provided by Dr. S. Sisodia (University of Chicago, Chicago, Ill.)). CHO/APP695 were grown in 90% DMEM, 10% fetal bovine serum, 2 mM glutamine, 100 μg/ml each of penicillin and streptomycin, and 0.2 mg/ml G418. CHO/APP695 cells were seeded in 96-well dishes at 2×10^4 cells/well. Aβ-peptide formation was detected by either ECL or using radiolabeling.
For the radiolabeling experiments, CHO/APP695 cells (in 100 mm dishes) were grown to 70% confluency in complete media. Afterwards, these cells were cultured±1 μM L-685,458 for 24 hours, switched to Met-free medium (±1 μM L-685,458) for 20 minutes, pulsed with 1 mCi/ml of S^35-Met (Amersham Life Sciences, Inc, Arlington Heights, Ill.) in Met-free medium (±1 μM L-685,458) for 2 hours, and subsequently chased in complete medium (±1 μM L-685,458) for 45 minutes. The cells were washed with Hanks balanced salt solution and lysed with 1 ml of RIPA. The insoluble residue was removed by centrifugation. The 4G8 antibody (final concentration, 2 μg/ml) was added to the supernatant fractions. The samples were gently rotated overnight at 4° C. Protein G-agarose beads (Pharmacia Biotech, Piscataway, N.J.) were added the next day, the samples were rotated for an additional 2 hours and then centrifuged. […]

[1] = system: γ-secretase (HeLa cell membranes); test: In vitro γ-secretase assay with HeLa cell membranes and SEQ. ID. NO. 9 substrate in presence of detergent, ECL; assay type: biochemical, human; details: detergent 0.75%
[2] = system: γ-secretase (HeLa cell membranes); test: as above; assay type: biochemical, human; details: for Effect of detergent on in vitro γ-secretase cleavage of substrate: SEQ. ID. NO. 9 substrate
Experimental: HeLa S3 cells from American Type Culture Collection (Rockville, Md.) were grown in bioreactors (Analytical Biological Services; Wilmington, Del.) in 90% DMEM, 10% fetal bovine serum, 2 mM glutamine and 100 μg/ml each of penicillin and streptomycin. Frozen HeLa S3 cells were resuspended in buffer A (50 mM MES, pH 6.0, 5 mM MgCl2, 5 mM CaCl2, 150 mM KCl) containing “complete” protease inhibitor cocktail (Boehringer Mannheim, Indianapolis, Ind.). The cells were broken by single-pass through a French Press (Spectronic Instruments, Rochester, N.Y.). Cell debris and nuclei were removed by centrifugation at 800×g for 10 minutes. The supernatant solutions were centrifuged at 100,000×g for 60 minutes. The ensuing pellets were resuspended in buffer A and the centrifugation was repeated. The final membrane pellets were resuspended in buffer A to yield a protein concentration of approximately 12 mg/ml. All procedures were performed at 4° C. The membranes were stored at −70° C.
In vitro assays measuring γ-secretase activity were performed using cell membranes or as “solubilized γ-secretase”. In one reaction, SEQ. ID. NO. 9 substrate (1.7 μM) was incubated with cell membranes (0.5 mg/ml) in presence of detergent in buffer B (50 mM PIPES, pH 7.0, 5 mM MgCl2, 5 mM CaCl2, 150 mM KCl) at 37° C. In another reaction, supernatant solution from CHAPSO-extracted HeLa cell membranes (“solubilized γ-secretase”) was incubated with SEQ. ID. NO. 9 substrate at 37° C. in the presence of detergent in buffer B. Generally, 0.25% CHAPSO was provided as the detergent. The reactions were stopped by adding RIPA (150 mM NaCl, 1.0% NP-40, 0.5% DOC, 0.1% SDS, 50 mM Tris HCl, pH 8.0).
The samples were centrifuged and the supernatant solutions were assayed for the Aβ peptides by ECL. The Aβ40- and Aβ42-related products from γ-secretase-mediated processing of SEQ. ID. NO.
SEQ. ID. NO. 9 substrate (1.7 μM) was incubated with cell membranes (0.5 mg/ml) in presence of CHAPSO, CHAPS or Triton X-100 (0, 0.125, 0.25, 0.5, or 1%) in buffer B at 37° C.

[3] = system: γ-secretase (HeLa cell membranes); test: Extraction of γ-secretase activity from HeLa cell membranes with CHAPSO detergent; assay type: biochemical, human
Experimental: HeLa S3 cells from American Type Culture Collection (Rockville, Md.) were grown in bioreactors (Analytical Biological Services; Wilmington, Del.) in 90% DMEM, 10% fetal bovine serum, 2 mM glutamine and 100 μg/ml each of penicillin and streptomycin. […] The cells were broken by single-pass through a French Press (Spectronic Instruments, Rochester, N.Y.). Cell debris and nuclei were removed by centrifugation at 800×g for 10 minutes. The supernatant solutions were centrifuged at 100,000×g for 60 minutes. The ensuing pellets were resuspended in buffer A and the centrifugation was repeated. The final membrane pellets were resuspended in buffer A to yield a protein concentration of approximately 12 mg/ml. All procedures were performed at 4° C. The membranes were stored at −70° C. […] The supernatant solutions (solubilized fractions) and the pellets (membrane fractions) were then assayed for γ-secretase activity with the SEQ. ID. NO. 9 substrate. […] The ensuing supernatant solution provides “solubilized γ-secretase”. […] In vitro assays measuring γ-secretase activity were performed using cell membranes or as “solubilized γ-secretase”. In one reaction, SEQ. ID. […] ID. NO. 9 substrate at 37° C. in the presence of detergent in buffer B.

[4] = system: solubilized γ-secretase (CHAPSO-extracted HeLa cell membranes); test: In vitro γ-secretase assay with "solubilized γ-secretase" and SEQ. ID. NO. 9 substrate, ECL; assay type: biochemical, human; details: solubilized γ-secretase
Experimental: (§1) The ensuing supernatant solution provides “solubilized γ-secretase”.
(§2) In vitro assays measuring γ-secretase activity were performed using cell membranes or as “solubilized γ-secretase”. In one reaction, SEQ. ID. NO. […] ID. NO.

[5] = molecular target: T1, solubilized γ-secretase (CHAPSO-extracted HeLa cell membranes) (Homo sapiens, UniProt P49768); test: as above; assay type: biochemical; details: assaying for Aβ40 cleavage, FIG. 2A; read-out: Apparent Km value of solubilized γ-secretase for substrate
T1 construct: ID; NO; 9 su
Experimental: as §1, §2

[6] = molecular target: solubilized γ-secretase (supernatant solution from 1% CHAPSO-extracted HeLa S3 cell membranes); test: cell-based or functional assay

Molecule	M-Aβ 40 production [1] [ECL signal × 10^−6]	Effect of detergent on in vitro γ-secretase cleavage of substrate ([2]; HeLa cell membranes)	M-Aβ 40 production ([2]; detergent 0.125%) [ECL signal × 10^−6]	M-Aβ 40 production ([2]; detergent 0.25%) [ECL signal × 10^−6]	M-Aβ 40 production ([2]; detergent 0.5%) [ECL signal × 10^−6]	M-Aβ 40 production ([2]; detergent 1%) [ECL signal × 10^−6]	also measured
CC(C)C[C@H](NC(=O)[C@H](Cc1ccccc1)C[C@@H](O)[C@H](Cc1ccccc1)NC(=O)OC(C)(C)C)C(=O)N[C@@H](Cc1ccccc1)C(N)=O [L-685,458]	–	–	–	–	–	–	Intracellular accumulation of APP fragments (α-CTF, β-CTF) (γ-secretase): intracellular accumulation of APP immunoreactive fragments that co-migrate with α-CTF and β-CTF
C[C@H](CCC(=O)NCCC[N+](C)(C)CC(O)CS(=O)(=O)[O-])[C@H]1CC[C@H]2[C@@H]3[C@H](O)C[C@@H]4C[C@H](O)CC[C@]4(C)[C@H]3C[C@H](O)[C@]12C (some centres unmarked) [CHAPSO]	0.07	promotes cleavage at the γ-secretase scissile bond	2.2	8.74	1.22	0.03	Detergent concentration giving optimal γ-secretase activity ([2]; HeLa cell membranes): 0.25%; % of total γ-secretase activity in Membranes fraction ([3]; CHAPSO 0.25%): 97%; % of total γ-secretase activity in Solubilized fraction ([3]; CHAPSO 0.25%): 3%; % of total γ-secretase activity in Membranes fraction ([3]; CHAPSO 0.50%): 65%; % of total γ-secretase activity in Solubilized fraction ([3]; CHAPSO 0.50%): 35%; % of total γ-secretase activity in Membranes fraction ([3]; CHAPSO 1.00%): 51%; % of total γ-secretase activity in Membranes fraction ([3]; CHAPSO 2.0%): 50%; % of total γ-secretase activity in Solubilized fraction ([3]; CHAPSO 2.0%): 50%
SEQ. ID. NO. 9 substrate: γ-secretase substrate: fusion protein of N-terminal Met, APP597-695 (β-CTF domain) and C-terminal Flag tag DYKDDDDK	–	–	–	–	–	–	Aβ42/Aβ40 cleavage ratio [4]: approximately 0.1; Km [5]: ~1 µM; Aβ42/Aβ40 cleavage ratio ([2]; intact membranes): approximately 0.1
Triton X-100	0.02	fails to potentiate in vitro γ-secretase activity	0.02	0.02	0.02	0.02	–
pepstatin (peptide)	–	–	–	–	–	–	IC50 for inhibiting the generation of the Aβ40 terminus (in vitro γ-secretase assay, ECL) [6]: 4 µM; IC50 for inhibiting the generation of the Aβ42 terminus (in vitro γ-secretase assay, ECL) [6]: 5.9 µM
C[C@H](CCC(=O)NCCC[N+](C)(C)CCCS(=O)(=O)[O-])[C@H]1CC[C@H]2[C@@H]3[C@H](O)C[C@@H]4C[C@H](O)CC[C@]4(C)[C@H]3C[C@H](O)[C@]12C [CHAPS]	0.04	promotes cleavage at the γ-secretase scissile bond	0.03	3.21	0.27	0.03	–
